The record followed here is paper PMC4125290, “Cyclic di-GMP-dependent Signaling Pathways in the Pathogenic Firmicute Listeria monocytogenes” (PLoS Pathogens, 2014).

Holding throughout (assay): HPLC of c-di-GMP hydrolysis to pGpG
What all share (format): biochemical
Holding throughout (conditions): 250 µM c-di-GMP, 1-5 µM enzyme, 37°C

Assay [1] deals with T1, PdeB (Lmo0131), PdeB::His6 (Listeria monocytogenes, UniProt Q8YAJ4).
T1 construct: tag kept

The target in assay [2] is T2, PdeC (Lmo1914), MBP::PdeC (Listeria monocytogenes, UniProt Q8Y5Y9).
T2 construct: MBP fusion (pMAL-c2x), E. coli DH5alpha, amylose resin; MBP kept
T2 sequence (Q8Y5Y9 entry or part of it): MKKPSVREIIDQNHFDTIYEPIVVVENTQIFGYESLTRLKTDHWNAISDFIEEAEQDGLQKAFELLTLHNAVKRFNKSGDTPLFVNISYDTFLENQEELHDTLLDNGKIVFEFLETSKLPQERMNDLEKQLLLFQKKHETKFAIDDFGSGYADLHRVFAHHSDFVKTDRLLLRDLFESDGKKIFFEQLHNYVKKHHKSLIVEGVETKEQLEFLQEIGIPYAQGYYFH

The target in assay [3] is T3, PdeD (Lmo0111), PdeD::His6 (Listeria monocytogenes, UniProt Q8YAK7).
T3 construct: tag kept
T3 sequence (Q8YAK7 entry or part of it): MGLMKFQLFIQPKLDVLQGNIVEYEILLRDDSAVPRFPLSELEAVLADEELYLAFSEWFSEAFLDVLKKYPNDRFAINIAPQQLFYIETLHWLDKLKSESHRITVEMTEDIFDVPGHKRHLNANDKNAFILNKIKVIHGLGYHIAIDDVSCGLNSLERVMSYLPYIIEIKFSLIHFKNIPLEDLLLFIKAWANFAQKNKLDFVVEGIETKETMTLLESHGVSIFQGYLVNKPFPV

T1 sequence (Q8YAJ4 entry or part of it): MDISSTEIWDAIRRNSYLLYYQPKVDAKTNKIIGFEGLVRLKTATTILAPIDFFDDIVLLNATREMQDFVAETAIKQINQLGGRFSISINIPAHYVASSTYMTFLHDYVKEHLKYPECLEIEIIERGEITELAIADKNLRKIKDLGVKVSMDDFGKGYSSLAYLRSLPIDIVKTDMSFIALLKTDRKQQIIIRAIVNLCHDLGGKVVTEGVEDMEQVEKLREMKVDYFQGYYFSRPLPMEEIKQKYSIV

In the case of `Nc1nc2c(ncn2[C@@H]2O[C@@H]3COP(=O)(O)O[C@H]4[C@@H](O)[C@H](n5cnc6c(=O)[nH]c(N)nc65)O[C@@H]4COP(=O)(O)O[C@H]3[C@H]2O)c(=O)[nH]1` [c-di-GMP], the “HPLC of c-di-GMP hydrolysis to pGpG” value in assay [1], in assay [2] and in assay [3] was “all three recombinant proteins possess c-di-GMP PDE activities in vitro” each time.
